“Also recorded” adds a separate entry of the source.
Assays:
[1] = more potent than tamoxifen; cited from earlier work
[2] = tested on: female New Zealand White rabbits (vagina, uterus, ovary); experiment: Study 858-0032-TX: 26/39-week intravaginal toxicity of tamoxifen in rabbits; type: in vivo, rabbit (New Zealand White)
From the text: (§1) Tamoxifen is a selective estrogen receptor modulator (SERM) which has species and tissue specific estrogen agonist and antagonist properties. Given orally in women, tamoxifen has estrogen antagonist activity in breast tissue and estrogen agonist effects in the endometrium and vagina. When administered vaginally in women, there is reduced systemic exposure leading to reduced systemic side effects. The objective of this pre-clinical study was to test the safety, pharmacokinetics (PK) and toxicity of vaginal tamoxifen over a 3 and 9 month treatment period in female New Zealand White rabbits.
(§2) All animal studies were conducted under IACUC approvals. In study 3015-012, at Charles River Labs (Mattawan, MI, USA), 45 female rabbits were randomly assigned to either sham (saline), placebo, or 5, 10 or 20 mg/kg/dose of vaginal tamoxifen. Investigational product (IP) was administered intravaginally once daily for 14 days, then twice weekly for up to 10 weeks with necropsy at 12-weeks. In study 858-0032-TX, conducted at WuXi AppTec (Suzhou, Jiangsu, China), 40 female rabbits were randomly assigned to sham (saline), placebo, or 10 or 30 mg/kg/dose of vaginal tamoxifen. IP was administered daily for 14 days and then twice weekly. An interim necropsy was performed at 26-weeks and then at 39-weeks.

[3] = tested on: female New Zealand White rabbits (vagina, uterus, ovary); experiment: Study 3015-012: 12-week intravaginal toxicity of tamoxifen in rabbits; type: in vivo, rabbit (New Zealand White)
From the text: as §1, §2

[4] = cited from earlier work
endometrium = conditions: cited from earlier work
vagina = experiment: Vaginal pH; type: in vivo, human (women)
From the text: Estrogenic effect measurements will include vaginal cytology (maturation index; percentage of basal and superficial cells) and vaginal pH at screening and baseline, every 2 weeks during treatment, and 1 week after treatment.
Vaginal swabs for determination of pH will be collected in accordance with the schedule of events (Table 4). The pH of vaginal secretions will be measured using pH paper.
Local estrogenic effect measurements included obtaining vaginal epithelial cells from the lateral vaginal sidewall and determining the VMI. The VMI is determined by categorizing the ratio (proportion in 100 cells) of the three types of vaginal epithelial cell types (parabasal, intermediate and superficial). A total VMI score was calculated as: % superficial cells+(0.5 x% intermediate cells)+(0 x % parabasal cells). The VMI and vaginal pH were measured at screening and baseline, and subsequently every 2 weeks during treatment and 1 week after treatment.

[5] = Systemic plasma pharmacokinetics of tamoxifen and metabolites after intravaginal DARE-VVA1; design: species or system human (women); conditions: human, in vivo, 20 mg
From the text: In each treatment group, participants will have serial blood sampling for PK analysis, with venous samples drawn from an indwelling line. Dense sampling will be performed following the Day 1 and Day 56 administrations of a tamoxifen vaginal insert; trough samples will be collected prior to dosing on Days 4, 7, 10, 18, 28, and 42, and a final sample will be collected at follow-up on Day 63. Samples will be analyzed using validated methods to determine plasma concentrations of tamoxifen and 3 metabolites: 4-hydroxytamoxifen, N-desmethyl-tamoxifen, and N-desmethyl-4-hydroxytamoxifen (endoxifen). […]
Samples will be analyzed using validated methods to determine plasma concentrations of tamoxifen and 3 metabolites: 4-hydroxytamoxifen, N-desmethyltamoxifen, and N-desmethyl-4-hydroxytamoxifen (endoxifen).
The PK characterization of tamoxifen concentrations for each dose to be profiled will use noncompartmental analysis (NCA). […] Standard PK parameters assessed will include measures of the extent of absorption using estimates of the area under the plasma concentration-time curve (AUC), the maximum observed drug concentration (Cmax), and the time to reach maximum drug concentration (Tmax). […]

[6] = 20 mg/kg/day, 12 weeks, cranial and mid vagina
[7] = 20 mg/kg/day, 12 weeks, intravaginal
[8] = postmenopausal women, daily oral tamoxifen at least 4 years

In the case of 4-hydroxytamoxifen [4-OHT], the “Potency relative to tamoxifen” value [1] is given as “approximately 100 ×”.
In the case of `CC/C(=C(\c1ccccc1)c1ccc(OCCNC)cc1)c1ccccc1` [NDT, N-desmethyltamoxifen], the “Systemic potency relative to tamoxifen” value [1] is listed as “approximately 1.7 ×”.
In the case of `CC/C(=C(\c1ccc(O)cc1)c1ccc(OCCNC)cc1)c1ccccc1` [endoxifen, N-desmethyl-4-hydroxytamoxifen], the “Potency relative to tamoxifen” value [1] is given as “approximately 100 ×”.
For `CC/C(=C(\c1ccccc1)c1ccc(OCCN(C)C)cc1)c1ccccc1` [tamoxifen, 1-(p-dimethylamino-ethoxphenyl)-2-ethyl-1,2-diphenylethylene], the Adverse effects ([2]; 30 mg dose, 39 weeks) was “no observed adverse effects”, the “Females affected by uterine atrophy” value ([2]; 30 mg/day, 26 weeks) was “Four of five” and the Ovary microscopy ([2]; 30 mg/kg/day, 26 weeks) was “moderate to marked atrophy of the interstitial cells in the ovary”. For the same compound, the “Uterine and ovarian weights” value ([2]; 30 mg/kg/day, 26 weeks) was “Product-related uterine and ovarian weight decreases”, the Uterus microscopy ([2]; 30 mg/kg/day, 26 weeks) was “mild to moderate uterine atrophy” and the Macroscopic changes ([2]; 26 weeks, any treatment group) was “no IP related macroscopic changes”. For the same compound, the “Systemic toxicity clinical findings” value ([2]; two studies, up to 39 weeks) was “no observed clinical findings which would be suspicious for systemic toxicity”, the “Uterine or endometrial hyperplasia” value ([2]; two studies, up to 39 weeks) was “no evidence of uterine or endometrial hyperplasia” and the “Local genital tract findings” value ([2]; vagina, uterus, ovary, up to 39 weeks) was “mostly organ atrophy”. For the same compound, the Adverse effects ([3]; 20 mg dose, 12 weeks) was “no observed adverse effects”, the “Vagina microscopy, atrophy” value [3, 6] was “minimal to mild diffuse atrophy; also recorded: diffuse vaginal atrophy” and the “Vagina microscopy, inflammatory cell infiltration” value [3, 6] was “increased incidence and/or severity of minimal to mild mixed inflammatory cell infiltration; also recorded: increased incidence of vaginal mixed inflammatory cell infiltrates”. The Ovary microscopy [3, 7] was “atrophy of interstitial glands; also recorded: increased incidence of ovarian interstitial gland atrophy with decreased weights”, the Paired ovary weights [3, 7] was “decreases in the mean weights (absolute and relative to terminal body weight)” and the Uterus/cervix weights [3, 7] was “decreases in the mean weights (absolute and relative to terminal body weight); also recorded: decreased uterine weights”. For the same compound, the “Vaginal epithelial degeneration, erosion, ulceration” value ([3]; 12-week necropsy) was “no evidence of epithelial degeneration, erosion, or ulceration”, the Other parameters ([3]; 12 weeks) was “no observed tamoxifen-related adverse effects on any of the other parameters” and the “Steady-state plasma concentration of NDT, range” value ([4]; 3 months oral daily 20 mg tamoxifen) was 152 to 706 ng/mL. The “Mean steady-state concentration of tamoxifen” value ([4]; oral 20 mg dose) was 122 ng/mL, the “Steady-state concentration of tamoxifen, range” value ([4]; oral 20 mg dose) was 71-183 and the “Peak plasma concentration of NDT, range” value ([4]; oral tamoxifen) was 10 to 20 ng/mL. The “Maximum plasma concentration of tamoxifen, range” value ([4]; single oral dose 20 mg) was 35 to 45 ng/mL, the “Mean maximum plasma concentration of tamoxifen” value ([4]; single oral dose 20 mg) was 40 ng/mL and the “Endometrial risk relative to general postmenopausal population” value (endometrium; [8]) was “about two to three times that of the general postmenopausal population”. The “Risk of complex hyperplasia” value (endometrium; [8]) was 3%, the “Risk of endometrial carcinoma” value (endometrium; [8]) was 2% and the “Risk of simple hyperplasia” value (endometrium; [8]) was “approximately 12%”. For the same compound, the “Risk of endometrial hyperplasia” value (endometrium; premenopausal women, oral tamoxifen) was “no different than in the general premenopausal population”, the “Improvement in vaginal pH” value (vagina; 10 mg and 20 mg, 8-week treatment) was “most improvement in vaginal pH” and the “Change in vaginal pH, baseline to end of treatment” value (vagina; all active doses combined, Day 56) was “statistically significant decreases in vaginal pH”. For the same compound, the “Median end of treatment vaginal pH levels, range” value (vagina; end of treatment) was 5.0-5.3, the Cmax at 240 h ([5]; Day 10, read-out: Single maximum plasma tamoxifen concentration) was 12 ng/mL and the concentration at 240 h ([5]; Day 10 trough, read-out: Plasma tamoxifen, median) was 8.29 ng/mL.

— patent US20260294846A1, “COMPOSITIONS AND METHODS FOR TREATING VULVAR AND VAGINAL ATROPHY (VVA)” (Daré Bioscience, Inc., priority 2023, published 2026)
